Measured values: paper PMC7024253, “New Napyradiomycin Analogues from Streptomyces sp. Strain CA-271078” (Marine Drugs, 2019)
≈ marks a conversion by molar mass, not a printed value. Like-named read-outs stand apart in the source and are kept apart here.

Key:
M. tuberculosis H37Ra = assay: Antibacterial assay against M. tuberculosis; assay type: cell-based, Mycobacterium tuberculosis; details: for MIC: Mycobacterium tuberculosis; for MIC / MIC Mt: M. tuberculosis H37Ra, MIC = lowest concentration inhibiting ≥ 95% of growth, top concentration 96 μg/mL (64 μg/mL for 3 and 8)
A. fumigatus ATCC46645 = assay: Antifungal assay against A. fumigatus; assay type: cell-based, Aspergillus fumigatus; details: A. fumigatus ATCC 46645, MIC = lowest concentration inhibiting ≥ 95% of growth, top concentration 96 μg/mL (64 μg/mL for 3 and 8); for MIC: Aspergillus fumigatus, ATCC46645
E. coli ATCC 25922 = assay: Antibacterial assay against E. coli; assay type: cell-based, Escherichia coli; details: top concentration 96 μg/mL (64 μg/mL for 3 and 8); for MIC: Escherichia coli, ATCC25922, MIC = lowest concentration inhibiting ≥ 95% of growth; for MIC Ec: MIC = lowest concentration inhibiting ≥ 95% of growth
A. baumannii MB5973 = assay: Antibacterial assay against A. baumannii; assay type: cell-based, Acinetobacter baumannii; details: MIC = lowest concentration inhibiting ≥ 95% of growth, top concentration 96 μg/mL (64 μg/mL for 3 and 8); for MIC: Acinetobacter baumannii
[1] = system: methicillin-resistant S. aureus (MRSA) MB5393; assay: Antibacterial assay against MRSA; assay type: cell-based, Staphylococcus aureus; details: for MIC: Staphylococcus aureus; for MIC / MIC MRSA: MIC = lowest concentration inhibiting ≥ 95% of growth after overnight incubation, top concentration 96 μg/mL (64 μg/mL for 3 and 8)
[2] = system: human liver adenocarcinoma cell line (HepG2); assay: Cytotoxicity assay against HepG2; assay type: cell-based; details: for IC50: 10 two-fold dilutions starting at 150, 100 (3, 8) or 30.0 μg/mL (1, 5)
[3] = MRSA, read-out: MIC MRSA, MRSA MB5393
[4] = MRSA MB5393, read-out: MIC MRSA
[5] = Homo sapiens, HepG2, HepG-2 cytotoxicity

| Molecule | MIC (M. tuberculosis H37Ra) [µg/mL] | MIC (A. fumigatus ATCC46645) [µg/mL] | MIC (E. coli ATCC 25922) [µg/mL] | MIC (A. baumannii MB5973) [µg/mL] | MIC [1, 3] [µg/mL] | MIC [1, 4] [µg/mL] | IC50 ([2]; HepG-2 cytotoxicity) [µM] | IC50 [2, 5] [µM] | MIC Mt (M. tuberculosis H37Ra) [µg/mL] | MIC Af (A. fumigatus ATCC46645) [µg/mL] | MIC Ec (E. coli ATCC 25922) [µg/mL] | MIC Ab (A. baumannii MB5973) [µg/mL] | MIC MRSA ([1]; MRSA MB5393) [µg/mL] | growth-inhibitory activity against Mycobacterium tuberculosis (in words) (M. tuberculosis H37Ra; abstract statement) | growth-inhibitory activity against methicillin-resistant Staphylococcus aureus (in words) ([1]; abstract statement) | growth-inhibitory activity against HepG2 (in words) ([2]; abstract statement) |
| --- | --- | --- | --- | --- | --- | --- | --- | --- | --- | --- | --- | --- | --- | --- | --- | --- |
| CC1(C)O[C@@]2(C[C@H]3C(C)(C)[C@@H](Cl)CC[C@]3(C)O)C(=O)c3cc(O)cc(O)c3C(=O)C2=C[C@H]1Cl [Compound 2, Napyradiomycin B7a] | 12 to 24 (≈ 24.1 to 48.2 µM) | > 96 | > 96 | > 96 | 3 to 48 (≈ 6.03 to 96.5 µM) | 48 (≈ 96.5 µM) | 41.7 | < 50 | – | – | – | – | – | – | – | – |
| CC1(C)O[C@@]2(C[C@H]3C(C)(C)[C@@H](Cl)CC[C@]3(C)O)C(=O)c3cc(O)cc(O)c3C(=O)C2=C[C@@H]1Cl [Compound 3, Napyradiomycin B7b] | > 64 | > 64 | > 64 | > 64 | – | > 64 | – | 110 | – | – | – | – | – | – | – | – |
| CC1(C)O[C@@]2(C[C@H]3C(C)(C)[C@@H](Cl)CC[C@]3(C)O)C(=O)c3cc(O)cc(O)c3C(=O)[C@@]2(O)C[C@H]1Cl [Compound 4, Napyradiomycin SC] | 24 to 48 (≈ 46.6 to 93.1 µM) | > 96 | > 96 | > 96 | – | > 96 | – | 264 | – | – | – | – | – | – | – | – |
| napyradiomycin B6 [Compound 9] | – | – | – | – | – | – | 71.2 | – | 12 to 24 | >96 | >96 | >96 | 48 to 96 | – | – | – |
| CC1=CCC23OC(C)(C)C(Cl)CC2(Cl)C(=O)c2c(cc(O)cc2C3=O)OCC(C)=CCC1 (stereo not shown) [Compound 5, Napyradiomycin D1] | 24 to 48 (≈ 50.1 to 100 µM) | – | > 96 | > 96 | 3 to 48 (≈ 6.26 to 100 µM) | 12 to 24 (≈ 25 to 50.1 µM) | – | – | – | – | – | – | – | significant growth-inhibitory activity | significant growth-inhibitory activity | significant growth-inhibitory activity |
| C=C(C)C(O)CCC(C)=CCC12OC(C)(C)C(O)C=C1C(=O)c1c(O)cc(O)cc1C2=O (stereo not shown) [Compound 1, Napyradiomycin A3] | – | – | > 96 | > 96 | – | > 96 | – | > 67.8 | – | – | – | – | – | – | – | – |
| napyradiomycin B5 [Compound 15] | – | – | – | – | – | – | 40.1 | – | 24 to 48 | >96 | >96 | >96 | 12 to 24 | – | – | – |
| napyradiomycin A2b [Compound 12] | – | – | – | – | – | – | 28.6 | – | 48 to 96 | >96 | >96 | >96 | 12 to 24 | – | – | – |
| napyradiomycin B2 [Compound 14] | – | – | – | – | – | – | 27.1 | – | 24 to 48 | >96 | >96 | >96 | 3 to 6 | – | – | – |
| COc1cc(O)c2c(c1)C(=O)C1=C(CC(Cl)C(C)(C)O1)C2=O (stereo not drawn) [Compound 8, 3-chloro-6-hydroxy-8-methoxy-α-lapachone] | – | – | – | – | – | – | 30.2 | – | >64 | >64 | >64 | >64 | >64 | – | – | – |
| CC1(C)O[C@@]2(C[C@H]3C(C)(C)[C@@H](Cl)CC[C@]3(C)O)C(=O)c3cc(O)cc(O)c3C(=O)[C@@]2(Cl)C[C@H]1Cl [Compound 13, napyradiomycin B4] | – | – | – | – | – | – | – | – | 12 to 24 | >96 | >96 | >96 | 12 to 24 | – | – | – |
| CC(=CCCC(C)=CCC12OC(C)(C)C(Cl)CC1(Cl)C(=O)c1c(O)cc(O)cc1C2=O)CO (stereo not shown) [Compound 10, 18-hydroxynapyradiomycin A1] | – | – | – | – | – | – | 64.4 | – | >96 | >96 | >96 | >96 | 48 to 96 | – | – | – |
| CC1(C)OC2=C(CC1Cl)C(=O)c1c(O)cc(O)cc1C2=O (stereo not drawn) [Compound 7, 3-chloro-6,8-dihydroxy-8-α-lapachone] | – | – | – | – | – | – | 187 | – | 12 to 24 | >96 | >96 | >96 | 48 to 96 | – | – | – |
| napyradiomycin A2a [Compound 11] | – | – | – | – | – | – | 30.4 | – | 48 to 96 | >96 | >96 | >96 | 12 to 24 | – | – | – |
